In patent US11370769B2, “TRPC5 inhibitors and methods of using same” (BOARD OF REGENTS OF THE UNIVERSITY OF NEBRASKA, priority 2017, dated 2022):

Tests used:
[1] = biological target: T1, TRPC5 channel (Rattus norvegicus, UniProt Q8VD38); assay: Glomerular inside-out single-channel recordings, riluzole-activated TRPC5 channel activity; assay type: cell-based; settings: Rilu 3 μM
T1 construct: Acutely isolated glomeruli were prepared as described above; from tissue; host or cells: acutely isolated glomeruli (podocytes) of AT1R Tg and WT rats
T1 sequence (Q8VD38 1-974): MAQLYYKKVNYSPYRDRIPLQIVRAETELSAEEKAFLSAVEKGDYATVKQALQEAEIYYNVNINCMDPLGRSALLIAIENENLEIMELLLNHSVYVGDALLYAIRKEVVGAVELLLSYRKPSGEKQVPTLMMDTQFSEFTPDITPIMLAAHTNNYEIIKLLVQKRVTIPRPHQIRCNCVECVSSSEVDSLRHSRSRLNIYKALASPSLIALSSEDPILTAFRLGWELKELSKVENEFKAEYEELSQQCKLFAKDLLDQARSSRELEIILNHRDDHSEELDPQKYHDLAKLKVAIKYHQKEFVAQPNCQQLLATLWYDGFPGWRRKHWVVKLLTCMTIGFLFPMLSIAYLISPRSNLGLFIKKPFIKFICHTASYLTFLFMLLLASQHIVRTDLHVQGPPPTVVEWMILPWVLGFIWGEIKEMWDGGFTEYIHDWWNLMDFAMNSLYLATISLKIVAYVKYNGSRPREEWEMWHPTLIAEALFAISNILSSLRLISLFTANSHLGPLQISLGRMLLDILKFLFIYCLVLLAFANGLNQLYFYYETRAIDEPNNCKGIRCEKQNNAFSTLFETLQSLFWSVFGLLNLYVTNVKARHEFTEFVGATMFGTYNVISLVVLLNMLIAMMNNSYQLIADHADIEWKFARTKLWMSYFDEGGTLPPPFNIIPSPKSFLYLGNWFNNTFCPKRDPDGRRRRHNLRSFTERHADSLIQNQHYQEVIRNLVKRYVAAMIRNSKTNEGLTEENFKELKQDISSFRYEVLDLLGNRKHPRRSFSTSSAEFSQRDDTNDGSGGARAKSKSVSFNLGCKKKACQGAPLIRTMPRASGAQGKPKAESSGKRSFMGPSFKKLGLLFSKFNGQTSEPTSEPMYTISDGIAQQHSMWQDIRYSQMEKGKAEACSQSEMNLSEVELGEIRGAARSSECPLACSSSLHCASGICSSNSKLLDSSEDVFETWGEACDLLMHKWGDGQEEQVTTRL
Protocol: Acute glomeruli isolation and Ca^2+-imaging: WT and AT1R Tg littermates were killed and kidneys were quickly dissected and washed with ice-cold PBS. After isolation using the sieving technique as previously described (11), glomeruli were incubated with the Ca^2+ indicator Fura2-AM (1 μM; Invitrogen) at 37° C. for 15 min. The extracellular solution for Ca^2+-imaging contained (in mM) 140 NaCl, 5 KCl, 10 HEPES, 2 MgCl2, 2 CaCl2, 10 glucose, with pH7.4 adjusted with NaOH. Glomerular Ca^2+-imaging was performed using an inverted microscope (Olympus IX70) with a high-speed CCD camera (Hamamatsu Photonics). Images were taken and analyzed using the Metafluor software (Molecular Devices). It should be noted that Fura-2 is most often taken up by podocytes at the periphery of the isolated glomerulus, but the specificity of recordings in podocytes is best confirmed by patch clamp electrophysiology, as described below.
Glomerular single-channel recordings: Acutely isolated glomeruli were prepared as described above. Single-channel recordings were carried out using an Axopatch 200B and Digidata 1550A (Molecular Devices). Bath and pipette solutions for glomerular single-channel recording contained (in mM) 135 CH3SO3Na, 5 CsCl, 2 CaCl2, 1 MgCl2, 10 HEPES, and 10 glucose with pH7.4 adjusted with NaOH. Once in the inside-out configuration, the bath solution was replaced by intracellular solution, containing (in mM) 135 CH3SO3Cs, 10 CsCl, 3 MgATP, 0.2 EGTA, 0.13 CaCl2, and 10 HEPES with pH 7.4 adjusted with CsOH. Patch pipettes, with resistance of 4-8 MΩ, were prepared using a two step-protocol (P-97, Sutter Instrument). Pipettes were fire-polished before use. For inside-out configuration, a giga-seal (>10 GΩ) was established prior to membrane rupture. Data was acquired at 10 kHz sampling frequency, and filtered with low-pass filtering at 1 kHz. Holding membrane potential was at −60 mV. Single-channel analysis was carried out using Clampfit 10.4 software (Molecular Devices).

[2] = tested on: caAT1R podocytes; assay: ROS assay in caAT1R expressing podocytes; assay type: cell-based, mouse; settings: 30 μM ML204, 30 μM AC1903 or 50 μM NSC23677 for 36 hours
Protocol: (§1) Podocyte culture and viral transduction: Immortalized mouse podocytes were cultured as previously described (10, 11). Podocyte viral transduction was performed using lentivirus as previously described (10, 11). Briefly, lentivirus production was carried out in HEK293T cells at 60% confluence, and viral particles were collected two days after transfection and purified by centrifugation at 1,000 rcf for 5 min. Purified lentivirus was frozen at −80° C. until further use. Podocytes were transduced with lentivirus after 7 days of differentiation, and assays were performed 5 days after viral transduction.
(§2) For experiments in FIG. 4B/C, pCDNA3.1 AT1AR-Δ324 (rat AT1R NM_030985.4) containing HA tag (Plasmid #45635, Addgene) underwent site directed mutagenesis (Agilent) to generate the N111S substitution. For FIG. 4B, differentiated podocytes were transduced with the AT1A-N111S/Δ324 construct in six-well plates. Six days after viral transduction, cells were treated with either vehicle, 30 μM ML204, 30 μM AC1903 or 50 μM NSC23677 for 36 hours. Intracellular production of ROS was measured using a cell-permeable fluorescent dye, 5-(and-6)-chloromethyl-2′,7′-dichlorodihydrofluorescein diacetate, acetyl ester (CM-H2DCFDA, Molecular Probes). Cells were incubated with 5 μM CM-H2DCFDA at 37° C. for 45 min in Hanks' balanced salt solution (HBSS). Cells were then collected, resuspended in HBSS, stained with propidium iodide and the fluorescence intensity was assessed by flow cytometry using MACSQuant Analyzer (Miltenyi Biotec, Bergisch Gladbach, Germany). Living cells, which were PI negative, were selected by FACS gating and the fluorescence of CM-H2DCFDA was recorded on the FL-1 channel (525 nm). For FIG. 4C, differentiated podocytes were transduced with the AT1A-N111S/Δ324 construct in 96 well plates. Six days after transduction, the cells were treated with either vehicle, 30 μM ML204, 30 μM AC1903 or 50 μM NSC23677 for 36 hours. […]

[3] = tested on: caAT1R podocytes; assay: Cell viability assay in podocytes expressing caAT1R; assay type: cell-based, mouse; settings: 30 μM ML204, 30 μM AC1903 or 50 μM NSC23677 for 36 hours
Protocol: as §1, §2

SMILES	block of TRPC5 channel activity, inside-out recordings in intact glomeruli ([1]; AT1R Tg rats, Advanced, AC1903 1 μM)	caAT1R-induced ROS generation [2]	podocyte cell death on caAT1R expression [3]	inhibition of riluzole-activated channel activity, inside-out recordings of podocytes ([1]; AT1R Tg rat glomeruli at disease onset (Onset), ML204 1 μM)	inhibition of riluzole-activated conductance, inside-out recordings of podocytes ([1]; AT1R Tg rat glomeruli, established disease (Advanced), ML204 1 μM)
c1ccc(Cn2c(NCc3ccco3)nc3ccccc32)cc1 [AC1903]	blocks TRPC5 channel activity	blocked caAT1R-induced ROS generation	protected from cell death	–	–
Cc1cc(N2CCCCC2)nc2ccccc12 [ML204, reference compound]	–	blocked caAT1R-induced ROS generation	protected from cell death	significant ML204 inhibition of channel activity	inhibition of a much greater riluzole-activated conductance
